According to patent publication US6737383B1, “Herbicidal oxadiazolidines” (priority 1999, dated 2004):

What was measured:
[1] = test system: bedstraw; test: Test B pre/postemergence bedstraw; format: in vivo, Galium aparine
In short: (§1)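 Herbicidal effect was estimated by eye on a ten-point control scale after plants spent twelve to sixteen days in a greenhouse following soil or foliar treatment. Foliar sprays targeted plants at one to four leaves; all doses were formulated in a non-phytotoxic solvent with surfactant.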

[2] = test system: blackgrass; test: Test B pre/postemergence blackgrass; format: in vivo, Alopecurus myosuroides
In short: as §1

[3] = test system: surinam grass; test: Test B pre/postemergence surinam grass; format: in vivo, Brachiaria decumbens
In short: as §1

[4] = test system: cocklebur; test: Test B pre/postemergence cocklebur; format: in vivo, Xanthium strumarium
In short: as §1

[5] = test system: corn; test: Test B pre/postemergence corn; format: in vivo, Zea mays
In short: as §1

[6] = test system: crabgrass; test: Test B pre/postemergence crabgrass; format: in vivo, Digitaria sanguinalis
In short: as §1

[7] = test system: giant foxtail; test: Test B pre/postemergence giant foxtail; format: in vivo, Setaria faberii
In short: as §1

[8] = test system: morningglory; test: Test B pre/postemergence morningglory; format: in vivo, Ipomoea hederacea
In short: as §1

[9] = test system: pigweed; test: Test B pre/postemergence pigweed; format: in vivo, Amaranthus retroflexus; conditions: for Plant response rating, Redroot pigweed: Postemergence
In short: as §1

[10] = test system: rape; test: Test B pre/postemergence rape; format: in vivo, Brassica napus
In short: as §1

[11] = test system: soybean; test: Test B pre/postemergence soybean; format: in vivo, Glycine max; conditions: for Plant response rating, Soybean: Postemergence
In short: as §1

[12] = test system: sugar beet; test: Test B pre/postemergence sugar beet; format: in vivo, Beta vulgaris; conditions: for Plant response rating, Sugarbeets: Postemergence
In short: as §1

[13] = test system: velvetleaf; test: Test B pre/postemergence velvetleaf; format: in vivo, Abutilon theophrasti; conditions: for Plant response rating, Velvetleaf: Postemergence
In short: as §1

[14] = test system: wheat; test: Test B pre/postemergence wheat; format: in vivo, Triticum aestivum; conditions: for Plant response rating, Wheat: Postemergence
In short: as §1

[15] = test system: wild oat; test: Test B pre/postemergence wild oat; format: in vivo, Avena fatua; conditions: for Plant response rating, Wild oats: Postemergence
In short: as §1

[16] = test system: purple nutsedge; test: Test B pre/postemergence purple nutsedge; format: in vivo, Cyperus rotundus
In short: as §1

[17] = Postemergence, Rate 62 g/ha, scale of 0 to 10, 0 is no effect, 10 is complete control
[18] = Preemergence, Rate 62 g/ha, scale 0 to 10 (0 no effect, 10 complete control)
[19] = Preemergence, Rate 125 g/ha, scale 0 to 10, 0 is no effect, 10 is complete control
[20] = Preemergence, Rate 500 g/ha, scale of 0 to 10 where 0 is no effect and 10 is complete control
[21] = Rate 250 g/ha, Postemergence, scale of 0 to 10 where 0 is no effect and 10 is complete control
[22] = Postemergence, Rate 125 g/ha, scale 0 to 10, 0 is no effect, 10 is complete control
[23] = Postemergence, Rate 500 g/ha, scale of 0 to 10 where 0 is no effect and 10 is complete control
[24] = Rate 500 g/ha, scale of 0 to 10 where 0 is no effect and 10 is complete control
[25] = Rate 250 g/ha, scale of 0 to 10 where 0 is no effect and 10 is complete control

## COC(=O)CCCn1c(=O)on(C(=O)N(c2ccccc2)C(C)C)c1=O [Compound 572]
[1]; [17]
  Bedstraw plant response rating: 0
[1]; [18]
  Bedstraw plant response rating: 0
[1]; [19]
  Bedstraw plant response rating: 0
[1]; Preemergence, Rate 250 g/ha
  Bedstraw plant response rating (0 to 10 scale): 0
[1]; [20]
  Bedstraw plant response rating: 0
[1]; [21]
  Plant response rating, Bedstraw: 0
[2]; [17]
  Blackgrass plant response rating: 0
[2]; [22]
  Blackgrass plant response rating: 0
[2]; [23]
  Plant response rating, Blackgrass: 0
[2]; [18]
  Blackgrass plant response rating: 0
[2]; [19]
  Blackgrass plant response rating: 0
[2]; Preemergence, Rate 250 g/ha
  Blackgrass plant response rating (0 to 10 scale): 0
[2]; [20]
  Blackgrass plant response rating: 0
[2]; [21]
  Plant response rating, Blackgrass: 0
[3]; [17]
  B. signalgrass plant response rating: 0
[3]; [22]
  B. signalgrass plant response rating: 0
[3]; [23]
  Plant response rating, B. signalgrass: 0
[3]; [18]
  B. signalgrass plant response rating: 0
[3]; [19]
  B. signalgrass plant response rating: 0
[3]; Preemergence, Rate 250 g/ha
  B. signalgrass plant response rating (0 to 10 scale, 0 is no effect, 10 is complete control): 0
[3]; [20]
  B. signalgrass plant response rating: 0
[3]; [21]
  Plant response rating, B. signalgrass: 0
[4]; [17]
  Cocklebur plant response rating: 0
[4]; [22]
  Cocklebur plant response rating: 0
[4]; [23]
  Plant response rating, Cocklebur: 0
[4]; [18]
  Cocklebur plant response rating: 0
[4]; [19]
  Cocklebur plant response rating: 0
[4]; Preemergence, Rate 250 g/ha
  Cocklebur plant response rating (0 to 10 scale): 0
[4]; [20]
  Cocklebur plant response rating: 0
[4]; [21]
  Plant response rating, Cocklebur: 0
[5]; [17]
  Corn plant response rating: 0
[5]; [22]
  Corn plant response rating: 0
[5]; [23]
  Plant response rating, Corn: 0
[5]; [18]
  Corn plant response rating: 0
[5]; [19]
  Corn plant response rating: 0
[5]; Preemergence, Rate 250 g/ha
  Corn plant response rating (0 to 10 scale): 0
[5]; [20]
  Corn plant response rating: 0
[5]; [21]
  Plant response rating, Corn: 0
[6]; [17]
  Crabgrass plant response rating: 0
[6]; [22]
  Crabgrass plant response rating: 0
[6]; [23]
  Plant response rating, Crabgrass: 8
[6]; [18]
  Crabgrass plant response rating: 0
[6]; [19]
  Crabgrass plant response rating: 0
[6]; Preemergence, Rate 250 g/ha
  Crabgrass plant response rating (0 to 10 scale): 0
[6]; [20]
  Crabgrass plant response rating: 0
[6]; [21]
  Plant response rating, Crabgrass: 6
[7]; [17]
  Giant foxtail plant response rating: 0
[7]; [22]
  Giant foxtail plant response rating: 0
[7]; [23]
  Plant response rating, Giant foxtail: 0
[7]; [18]
  Giant foxtail plant response rating: 0
[7]; [19]
  Giant foxtail plant response rating: 0
[7]; Preemergence, Rate 250 g/ha
  Giant foxtail plant response rating (0 to 10 scale): 4
[7]; [20]
  Giant foxtail plant response rating: 7
[7]; [21]
  Plant response rating, Giant foxtail: 0
[8]; [17]
  Morningglory plant response rating: 3
[8]; [22]
  Morningglory plant response rating: 3
[8]; [23]
  Plant response rating, Morningglory: 10
[8]; [18]
  Morningglory plant response rating: 0
[8]; [19]
  Morningglory plant response rating: 0
[8]; Preemergence, Rate 250 g/ha
  Morningglory plant response rating (0 to 10 scale): 0
[8]; [20]
  Morningglory plant response rating: 0
[8]; [21]
  Plant response rating, Morningglory: 5
[9]; [24]
  Plant response rating, Redroot pigweed: 0
[9]; [18]
  Redroot pigweed plant response rating: 0
[9]; [19]
  Redroot pigweed plant response rating: 0
[9]; Preemergence, Rate 250 g/ha
  Redroot pigweed plant response rating (0 to 10 scale): 0
[9]; [20]
  Redroot pigweed plant response rating: 5
[9]; [25]
  Plant response rating, Redroot pigweed: 0
[10]; [17]
  Rape plant response rating: 2
[10]; [22]
  Rape plant response rating: 3
[10]; [23]
  Plant response rating, Rape: 4
[10]; [18]
  Rape plant response rating: 0
[10]; [19]
  Rape plant response rating: 0
[10]; Preemergence, Rate 250 g/ha
  Rape plant response rating (0 to 10 scale): 0
[10]; [20]
  Rape plant response rating: 0
[10]; [21]
  Plant response rating, Rape: 3
[11]; [24]
  Plant response rating, Soybean: 7
[11]; [18]
  Soybean plant response rating: 0
[11]; [19]
  Soybean plant response rating: 0
[11]; Preemergence, Rate 250 g/ha
  Soybean plant response rating (0 to 10 scale): 0
[11]; [20]
  Soybean plant response rating: 0
[11]; [25]
  Plant response rating, Soybean: 5
[12]; [24]
  Plant response rating, Sugarbeets: 0
[12]; [18]
  Sugarbeets plant response rating: 0
[12]; [19]
  Sugarbeets plant response rating: 0
[12]; Preemergence, Rate 250 g/ha
  Sugarbeets plant response rating (0 to 10 scale): 0
[12]; [20]
  Sugarbeets plant response rating: 0
[12]; [25]
  Plant response rating, Sugarbeets: 0
[13]; [24]
  Plant response rating, Velvetleaf: 7
[13]; [18]
  Velvetleaf plant response rating: 0
[13]; [19]
  Velvetleaf plant response rating: 0
[13]; Preemergence, Rate 250 g/ha
  Velvetleaf plant response rating (0 to 10 scale): 0
[13]; [20]
  Velvetleaf plant response rating: 2
[13]; [25]
  Plant response rating, Velvetleaf: 0
[14]; [24]
  Plant response rating, Wheat: 0
[14]; [18]
  Wheat plant response rating: 0
[14]; [19]
  Wheat plant response rating: 0
[14]; Preemergence, Rate 250 g/ha
  Wheat plant response rating (0 to 10 scale): 0
[14]; [20]
  Wheat plant response rating: 0
[14]; [25]
  Plant response rating, Wheat: 0
[15]; [24]
  Plant response rating, Wild oats: 0
[15]; [18]
  Wild oats plant response rating: 0
[15]; [19]
  Wild oats plant response rating: 0
[15]; Preemergence, Rate 250 g/ha
  Wild oats plant response rating (0 to 10 scale): 0
[15]; [20]
  Wild oats plant response rating: 0
[15]; [25]
  Plant response rating, Wild oats: 0
[16]; [17]
  Nutsedge plant response rating: 0
[16]; [22]
  Nutsedge plant response rating: 0
[16]; [18]
  Nutsedge plant response rating: 0
[16]; [19]
  Nutsedge plant response rating: 0
[16]; Preemergence, Rate 250 g/ha
  Nutsedge plant response rating (0 to 10 scale): 0
[16]; [20]
  Nutsedge plant response rating: 0
[16]; [21]
  Plant response rating, Nutsedge: 0
